Assay results taken from patent US6403626B1, “Benzimidazole derivatives” (Synaptic Pharmaceutical Corporation, priority 1994, dated 2002).
Read-outs that look alike come from different tables or passages of the source. Blank lines part the entries; values can stand above or below the compound they belong to.

Columns and labels:
[1] = target: T1, α1B Human Adrenergic Receptor (Homo sapiens, UniProt P35368); test: Equilibrium competition binding, [3H] prazosin, membranes of transfected LM(tk-) cells
T1 construct: The entire coding region of α1B(1563 bp); expressed in transfected cells; host or cells: LM(tk-) cells
T1 sequence (P35368 1-520): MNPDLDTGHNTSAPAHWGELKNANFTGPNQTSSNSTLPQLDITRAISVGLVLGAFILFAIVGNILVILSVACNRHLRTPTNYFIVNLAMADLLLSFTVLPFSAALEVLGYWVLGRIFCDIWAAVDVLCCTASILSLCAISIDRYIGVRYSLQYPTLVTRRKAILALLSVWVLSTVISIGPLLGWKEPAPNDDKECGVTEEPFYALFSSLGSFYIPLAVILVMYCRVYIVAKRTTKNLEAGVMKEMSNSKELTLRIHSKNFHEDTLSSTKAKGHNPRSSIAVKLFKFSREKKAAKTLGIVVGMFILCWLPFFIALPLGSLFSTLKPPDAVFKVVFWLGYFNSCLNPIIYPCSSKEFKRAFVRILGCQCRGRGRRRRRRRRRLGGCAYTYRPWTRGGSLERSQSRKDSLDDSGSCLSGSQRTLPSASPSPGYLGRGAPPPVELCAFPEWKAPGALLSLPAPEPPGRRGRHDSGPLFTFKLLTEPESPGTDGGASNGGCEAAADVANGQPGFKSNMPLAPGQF

[2] = target: T2, α2C Human Adrenergic Receptor (Homo sapiens, UniProt P18825); type: cell-based; set-up: The entire coding region of α2C (1383 bp), including 2 bp of 5′ UT and 400 bp of 3′ UT; expressed in transfected cells; host or cells: LM(tk-) cells; conditions: for I.A Alpha-2 C: functional cAMP assay
T2 sequence (P18825 1-462): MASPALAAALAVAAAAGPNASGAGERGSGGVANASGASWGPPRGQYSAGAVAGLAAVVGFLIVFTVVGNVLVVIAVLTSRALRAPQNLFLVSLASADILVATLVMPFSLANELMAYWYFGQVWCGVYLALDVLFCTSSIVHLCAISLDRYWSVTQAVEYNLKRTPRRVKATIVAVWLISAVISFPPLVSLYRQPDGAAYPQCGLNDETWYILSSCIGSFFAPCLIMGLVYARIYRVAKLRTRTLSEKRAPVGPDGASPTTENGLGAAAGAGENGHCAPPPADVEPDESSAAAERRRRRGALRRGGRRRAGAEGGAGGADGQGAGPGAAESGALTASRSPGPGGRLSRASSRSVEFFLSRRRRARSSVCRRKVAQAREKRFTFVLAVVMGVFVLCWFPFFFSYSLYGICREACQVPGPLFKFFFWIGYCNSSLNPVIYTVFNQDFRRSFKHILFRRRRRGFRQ

[3] = target: T2, α2C Human Adrenergic Receptor; test: Equilibrium competition binding, [3H] rauwolscine, membranes of transfected LM(tk-) cells
[4] = system: Adult rhesus monkeys (Macaca mulatta); test: Sedation and muscle relaxation rating; type: in vivo; conditions: subcutaneous, cumulative dosing 0.1-3.2 mg/kg, versus clonidine 0.032-1.0 mg/kg
Description: Subjects. Adult rhesus monkeys (Macaca mulatta) of either sex were housed individually with free access to water. They were fed fresh fruit weekly and approximately 40 biscuits (Purina Monkey Chow) daily.
Procedure. Monkeys were trained to receive subcutaneous injections while in their home cages; they were rated by one non-blind observer familiar with the individual subjects, according to modified rating scales for sedation and muscle relaxation (Table 2); Separate scales describe increasing degrees of sedation (as measured by responsiveness to stimuli) and muscle relaxation (as observed through changes in posture). Animals were injected in a cumulative dosing procedure with a 30 minute interinjection interval; observer rating on both scales took place approximately 15 minutes after each injection.
Design. […] The same three monkeys were typically studied under each se of conditions.

[5] = target: α2C Human Adrenergic Receptor (Homo sapiens, UniProt P18825); test: Equilibrium competition binding, [3H] rauwolscine, membranes of transfected LM(tk-) cells; remark: listed apart in the source
[6] = cloned human receptor, [3H] prazosin, read-out: pKi Alpha-1 B (converted)
[7] = inhibition of forskolin-stimulated cAMP, NA: Not Active, read-out: pEC50 Alpha-2 C (converted)

SMILES: c1nc2ccc(NC3=NCCN3)cc2[nH]1 [Example 1, 5-(2-Imidazolin-2-ylamino)Benzimidazole]
Ki [1, 6]: 24500 nM | EC50 [2]: 2.75 nM | I.A Alpha-2 C [2]: 1.00 | Ki [3]: 70.8 nM

SMILES: Brc1c(NC2=NCCN2)ccc2nc[nH]c12 [Example 2, 4-Bromo-5-(2-imidazolin-2-ylamino)Benzimidazole]
Ki [1]: 5890 nM | I.A Alpha-2 C [2]: 1.00 | EC50 [2, 7]: 117 nM | Ki [3]: 97.7 nM

SMILES: Clc1c(NC2=NCCN2)ccc2nc[nH]c12 [Example 3, 4-Chloro-5-(2-imidazolin-2-ylamino)Benzimidazole]
Ki [1, 6]: 8130 nM | EC50 [2]: 0.562 nM | I.A Alpha-2 C [2]: 1.00 | Ki [3]: 100 nM

Ki [1, 6]: 2750 nM | EC50 [2, 7]: 0.355 nM | Ki [3]: 25.7 nM
SMILES: Cc1c(N=C2NCCN2)ccc2[nH]cnc12 [Example 4, 4-Methyl-5-(2-imidazolin-2-ylamino)Benzimidazole]
sedation [4]: decreased sedation relative to the reference compound, clonidine

SMILES: Ic1c(NC2=NCCN2)ccc2nc[nH]c12 [Example 5, 4-Iodo-5-(2-imidazolin-2-ylamino)Benzimidazole]
Ki [1, 6]: 1820 nM | EC50 [2]: 1.35 nM | I.A Alpha-2 C [2]: 1.00 | Ki [3]: 24 nM

SMILES: CCCc1c(NC2=NCCN2)ccc2nc[nH]c12 [Example 7, 4-n-Propyl-5-(2-imidazolin-2-ylamino)Benzimidazole]
Ki [1, 6]: 1230 nM | EC50 [2]: 6.17 nM | I.A Alpha-2 C [2]: 1.00 | Ki [3]: 41.7 nM

SMILES: CCCCc1c(NC2=NCCN2)ccc2nc[nH]c12 [Example 8, 4-n-Butyl-5-(2-imidazolin-2-ylamino)Benzimidazole]
Ki [1, 6]: 2630 nM | I.A Alpha-2 C [2]: 1.00

SMILES: Cn1cnc2cc(NC3=NCCN3)ccc21 [Example 9, 1-Methyl-5-(2-imidazolin-2-ylamino)Benzimidazole]
Ki [1, 6]: 13500 nM | I.A Alpha-2 C [2]: 1.00

SMILES: Cn1cnc2c(Br)c(NC3=NCCN3)ccc21 [Example 10, 1-Methyl-4-bromo-5-(2-imidazolin-2-ylamino)Benzimidazole]
Ki [1, 6]: 3800 nM | EC50 [2]: 2.34 nM | I.A Alpha-2 C [2]: 1.00 | Ki [3]: 15.5 nM | melting point: 237 to 238 °C

SMILES: Cn1cnc2ccc(NC3=NCCN3)c(Br)c21 [Example 12, 3-Methyl-4-bromo-5-(imidazolin-2-ylamino)Benzimidazole]
pKi Alpha-1 B ([1]; cloned human receptor, [3H] prazosin): 6.46 | I.A Alpha-2 C [2]: 1.00 | pEC50 Alpha-2 C ([2]; inhibition of forskolin-stimulated cAMP, NA: Not Active): 7.76 | pKi Alpha-2 C ([3]; cloned human receptor, [3H] rauwolscine): 7.59

SMILES: COc1ccc(Cn2cnc3c(Br)c(NC4=NCCN4)ccc32)cc1 [Example 36, 1-(4-Methoxybenzyl)-4-bromo-5-(2-imidazolin-2-ylamino)Benzimidazole]
Ki [1]: 11000 nM | Ki [3]: 166 nM

SMILES: OCCn1cnc2c(Br)c(NC3=NCCN3)ccc21 [Example 38, 1-(2-Hydroxyethyl)-4-bromo-5-(2-imidazolin-2-ylamino)Benzimidazole]
Ki [1]: 17400 nM | I.A Alpha-2 C [2]: 1.00 | EC50 [2, 7]: 363 nM | Ki [3]: 1290 nM

SMILES: Cc1nc2ccc(NC3=NCCN3)c(Br)c2[nH]1 [Example 42, 2-Methyl-4-bromo-5-(2-imidazolin-2-ylamino)Benzimidazole]
Ki [1, 6]: 8510 nM | Ki [3]: 214 nM

SMILES: CCc1nc2ccc(NC3=NCCN3)c(Br)c2[nH]1 [Example 43, 2-Ethyl-4-bromo-5-(2-imidazolin-2-ylamino)Benzimidazole]
Ki [1, 6]: 6920 nM | I.A Alpha-2 C [2]: 0.90

SMILES: CC(C)c1nc2ccc(NC3=NCCN3)c(Br)c2[nH]1 [Example 44, 2-Isopropyl-4-bromo-5-(2-imidazolin-2-ylamino)Benzimidazole]
Ki [1, 6]: 5890 nM | I.A Alpha-2 C [2]: 0.80 | EC50 [2, 7]: 182 nM | Ki [3]: 214 nM

SMILES: CC(C)(C)c1nc2ccc(NC3=NCCN3)c(Br)c2[nH]1 [Example 45, 2-tert-Butyl-4-bromo-5-(2-imidazolin-2-ylamino)Benzimidazole]
Ki [1, 6]: 11500 nM | I.A Alpha-2 C [2]: 0.60

SMILES: FC(F)(F)c1nc2ccc(NC3=NCCN3)c(Br)c2[nH]1 [Example 46, 2-Trifluoromethyl-4-bromo-5-(2-imidazolin-2-ylamino)Benzimidazole]
Ki [1, 6]: 28200 nM | I.A Alpha-2 C [2]: 0.90 | Ki [5]: 1480 nM

Ki [1, 6]: 49 nM | I.A Alpha-2 C [2]: 0.60 | EC50 [2, 7]: 1.35 nM | Ki [3]: 245 nM
SMILES: Brc1c(NC2=NCCN2)ccc2nc(C(c3ccccc3)c3ccccc3)[nH]c12 [Example 48, 2-Diphenylmethyl-4-bromo-5-(2-imidazolin-2-ylamino)Benzimidazole]

SMILES: Brc1cc2nc[nH]c2c(Br)c1NC1=NCCN1 [Example 50, 4,6-Dibromo-5-(2-imidazolin-2-ylamino)Benzimidazole]
Ki [1, 6]: 166 nM | EC50 [2]: 70.8 nM | I.A Alpha-2 C [2]: 1.00 | Ki [3]: 24.5 nM

SMILES: Clc1cc(NC2=NCCN2)cc2[nH]cnc12 [Example 53, 7-Chloro-5-(2-imidazolin-2-ylamino)Benzimidazole]
Ki [1, 6]: 1910 nM | EC50 [2]: 1.07 nM | I.A Alpha-2 C [2]: 1.00 | Ki [3]: 89.1 nM

SMILES: CCCCc1cc(NC2=NCCN2)cc2[nH]cnc12 [Example 56, 7-Butyl-5-(2-imidazolin-2-ylamino)Benzimidazole]
Ki [1, 6]: 5130 nM | I.A Alpha-2 C [2]: 1.00

SMILES: Clc1cc(NC2=NCCN2)c(Br)c2[nH]cnc12 [Example 60, 4-Bromo-7-chloro-5-(2-imidazolin-2-ylamino)Benzimidazole]
Ki [1, 6]: 316 nM | EC50 [2]: 0.398 nM | I.A Alpha-2 C [2]: 1 | Ki [3]: 16.2 nM
